Experimental data published in US20250339409A1, “USES OF PAN BET INHIBITORS” (VYNE THERAPEUTICS INC., priority 2021, published 2025).
Values joined by “and” are separate entries in the source; they are usually repeats but may differ in a detail not shown here. Equal values may be shown once. Read-outs that look alike come from different tables or passages of the source.

Experiments:
[1] = Toxicokinetics in dogs after intra-articular injection: synovial fluid concentrations; assay type: in vivo, Beagle dogs; set-up: Synovial concentration of BETi1: unit not given here; settings: for AUC(0-t) / Cmax / Tmax / concentration at 4 weeks: Beagle, dog, synovial fluid; for AUC(0-t): read-out: Synovia AUC0-672 h; for concentration at 4 weeks: other: intra-articular injection, read-out: synovial level at four weeks post-treatment
Protocol: 16 Beagle dogs (8 males, 8 females) were assigned to four treatment groups to determine toxicity of BETi1 formulations following intra-articular injection.
The experimental groups are presented below: • Group 1: Control; 0 mg of BETi1/animal dose • Group 2: Low Dose; 7.5 mg of BETi1/animal dose • Group 3: Mid Dose; 75 mg of BETi1/animal dose • Group 4: High Dose; 150 mg of BETi1/animal dose
The control and BETi1 dose formulations were comprised as follows: Control: Vehicle (0.5% sodium carboxymethylcellulose; 0.1% polysorbate 80 in saline) • Low Dose: 0.75% w/w BETi1 suspended in Vehicle • Mid Dose: 7.5% w/w BETi1 suspended in Vehicle • High Dose: 15% w/w BETi1 suspended in Vehicle
Study dogs were administered control treatment or treatment with a BETi1 formulation via intra-articular injection only to their right knee joints. Dosage volume was 1 mL/knee.
Approximately 80 μL of synovial fluid was collected from animals from the right knee joint and placed into appropriately labeled tubes onto wet ice. Synovia was then transferred into labeled clear polypropylene tubes and frozen in the upright position over dry ice and stored in a freezer set to maintain <−60° C. until shipped on dry ice for analysis.
Quantification of BETi1 concentrations in plasma and synovial fluid was performed using a qualified liquid chromatographic triple quadrupole mass spectrometric (LC-MS/MS) method. Synovial fluids were centrifuged before analysis.
Toxicokinetic (TK) analysis of BETi1 plasma concentration-time and synovial fluid concentration-time data was performed. TK parameter values including maximum plasma/synovial fluid concentrations (Cmax), time to reach maximum concentrations (Tmax), and area under the plasma/synovial fluid concentrations vs. time curve (AUC) from time zero to 672-hour (AUC0-672h) was determined. Values that were below the lower limit of quantification (BLQ) were set to zero in the calculation of mean concentrations. When more than half of individual values at a single time point were BLQ, mean values were reported as BLQ.

[2] = test system: MMP-9; assay: RHE vitiligo model: MMP-9 secretion by ELISA; assay type: cell-based, human; settings: for reduction in secreted MMP-9: 1% treatment, vs stimulated/untreated control or vehicle; for MMP-9 (% stimulated ctl) Mean / MMP-9 (% stimulated ctl): TNF-α/IFN-γ stimulated RHE; for MMP-9 (% stimulated ctl) Mean / MMP-9 (% stimulated ctl) / Mean conc MMP-9 / Conc MMP-9: 48 h; for MMP-9 (% stimulated ctl) / Conc MMP-9: replicates N1-N3; for Mean conc MMP-9 / Conc MMP-9: culture medium of RHE, TNF-α 12 ng/ml/IFN-γ 12 ng/ml
Protocol: […] Three epidermis samples per condition are fixed in 4% formaldehyde solution and embedded in paraffin for further analysis (morphology analysis, melanin and melanocytes localisation/quantification). Three other epidermis samples per condition are put in a specific lysis buffer for total RNA extraction.
At the end of the treatments, culture media is collected (from 3 epidermis per condition), aliquoted and stored at −20° C. until use in ELISA assays. The quantity of MMP-9 secreted by the epidermis at the end of the treatments is analysed using the human MMP-9 Quantikine ELISA kit (Bio-Techne; DMP900). The secretion of E-cadherin in culture media is measured using to human E-cadherin Quantikine ELISA kit (Bio-Techne; DCADE0) dedicated for the measurement of natural human E-cadherin in culture supernates, serum, plasma, urine, and saliva.
The ELISAs are performed following the instructions of the supplier. The quantities of MMP-9 and E-cadherin are determined by comparisons with standard curves performed with recombinant human MMP-9 or E-cadherin provided in the kits.
Quantification of secretion of MMP-9 and E-cadherin by ELISA from collected culture medium was conducted in accordance with Method E. The results, shown in FIG. 5A and FIG. 5B are based on Tables 23 and 24 respectively and presented in percentage of release in comparison to the stimulated control. A statistical analysis (student t-test) was performed to compare the effects of the treatments with the formulations to the vehicle (with $: 0.05>p>0.01; $$: 0.01>p>0.001; and $$$: p<0.001). The same analysis was performed to compare the effects of the vehicle and of the unstimulated control to the stimulated control (with *: 0.05>p>0.01; **: 0.01>p>0.001; and ***: p<0.001). The analysis was performed from three replicates per condition (n=3). The mean of the three values and the standard deviation are presented on the histograms in FIG. 5A and FIG. 5B. As shown in Table 21 and FIG. 5A and consistent with the results of Part A, MMP-9 secretion was increased following the stimulation with the cytokines, which validates the assay.

[3] = test system: hydroxyproline; assay: Bleomycin mice: hydroxyproline content of lung tissue (colorimetric assay); assay type: in vivo, C57BL/6 male mice; settings: for Mean Diff., Hydroxyproline Level of Lung, Group 2 Bleo/Veh vs. BETi1 group: One Way ANOVA, Dunnett's; for Mean Diff., Hydroxyproline Level of Lung, Group 2 Bleo/Veh vs. BETi1 group / Mean 2 (group mean), Hydroxyproline Level of Lung: in µg/mg
Protocol: The left lobe of lung tissue is collected, and snap frozen for hydroxyproline levels analysis. Hydroxyproline (4-hydroxyproline, Hyp) is a common nonproteinogenic amino acid. Hydroxyproline in tissue hydrolysates is an indirect measure of the amount of collagen present. Hydroxyproline content of lung tissue is measured by colorimetric assay.

Cn1cc(-c2cccc(O)c2Oc2ccccc2)c2cc[nH]c2c1=O [BETi1]
Synovial concentration of BETi1 ([1]; 7.5 mg intra-articular, 72 h (day 3)): 125.625 | Synovial concentration of BETi1 ([1]; 7.5 mg intra-articular, 336 h (day 14)): 0 | Synovial concentration of BETi1 ([1]; 7.5 mg intra-articular, 504 h (day 21)): 0 | Synovial concentration of BETi1 ([1]; 7.5 mg intra-articular, 672 h (day 28), in ng/mL): 0.685 | Synovial concentration of BETi1 ([1]; 7.5 mg intra-articular, […] (day 7)): 1.58 | Synovial concentration of BETi1 ([1]; 75 mg intra-articular, 72 h (day 3)): 27050 | Synovial concentration of BETi1 ([1]; 75 mg intra-articular, 336 h (day 14)): 6805 | Synovial concentration of BETi1 ([1]; 75 mg intra-articular, 504 h (day 21)): 937 | Synovial concentration of BETi1 ([1]; 75 mg intra-articular, 672 h (day 28)): 316 | Synovial concentration of BETi1 ([1]; 75 mg intra-articular, […] (day 7)): 33700 | Synovial concentration of BETi1 ([1]; 150 mg intra-articular, 72 h (day 3)): 47600 | Synovial concentration of BETi1 ([1]; 150 mg intra-articular, 336 h (day 14)): 18070 | Synovial concentration of BETi1 ([1]; 150 mg intra-articular, 504 h (day 21)): 7765 | Synovial concentration of BETi1 ([1]; 150 mg intra-articular, 672 h (day 28)): 4375 | Synovial concentration of BETi1 ([1]; 150 mg intra-articular, […] (day 7)): 36000 | AUC(0-t) ([1]; 7.5 mg/animal, Male, Study Day 1): 25.4 µg·h/mL | Cmax ([1]; 7.5 mg/animal, Male, Study Day 1, read-out: Synovia Cmax): 244 ng/mL | Tmax ([1]; 7.5 mg/animal, Male, Study Day 1, read-out: Synovia Tmax): 120 h | AUC(0-t) ([1]; 75 mg/animal, Female, Study Day 1): 6090 µg·h/mL | Cmax ([1]; 75 mg/animal, Female, Study Day 1, read-out: Synovia Cmax): 43700 ng/mL | Tmax ([1]; 75 mg/animal, Female, Study Day 1, read-out: Synovia Tmax): 120 h | AUC(0-t) ([1]; 75 mg/animal, Male, Study Day 1): 7890 µg·h/mL | Cmax ([1]; 75 mg/animal, Male, Study Day 1, read-out: Synovia Cmax): 47600 ng/mL | Tmax ([1]; 75 mg/animal, Male, Study Day 1, read-out: Synovia Tmax): 120 h | AUC(0-t) ([1]; 150 mg/animal, Female, Study Day 1): 11300 µg·h/mL | Cmax ([1]; 150 mg/animal, Female, Study Day 1, read-out: Synovia Cmax): 46100 ng/mL | Tmax ([1]; 150 mg/animal, Female, Study Day 1, read-out: Synovia Tmax): 204 h | AUC(0-t) ([1]; 150 mg/animal, Male, Study Day 1): 12500 µg·h/mL | Cmax ([1]; 150 mg/animal, Male, Study Day 1, read-out: Synovia Cmax): 63200 ng/mL | Tmax ([1]; 150 mg/animal, Male, Study Day 1, read-out: Synovia Tmax): 120 h | concentration at 4 weeks ([1]; both sexes, 75 mg/animal, intra-articular, 75 mg): 1 µM | concentration at 4 weeks ([1]; both sexes, 150 mg/animal, intra-articular, 150 mg): 13 µM | Tmax ([1]; both sexes, intra-articular, calculated, read-out: Tmax, synovial fluid (converted)): ~120 h | Cmax ([1]; both sexes, intra-articular, highest dose (150 mg), read-out: Cmax, synovial fluid): 50000 ng/mL | reduction in secreted MMP-9 [2]: ~95% | reduction in secreted MMP-9 ([2]; listed as BETi1 1%): > 95% | reduction in secreted MMP-9 ([2]; listed as BETi 1%): about 94.7% | MMP-9 (% stimulated ctl) Mean ([2]; BETi1 0.001%): 137% | MMP-9 (% stimulated ctl) ([2]; BETi1 0.001%): 140% and 138% and 134% | Mean conc MMP-9 ([2]; BETi1 0.001%): 24.1 ng/mL | Conc MMP-9 ([2]; BETi1 0.001%): 24.5 ng/mL and 24.1 ng/mL and 23.5 ng/mL | MMP-9 (% stimulated ctl) Mean ([2]; BETi1 0.01%): 113% | MMP-9 (% stimulated ctl) ([2]; BETi1 0.01%): 113% and 104% and 122% | Mean conc MMP-9 ([2]; BETi1 0.01%): 19.8 ng/mL | Conc MMP-9 ([2]; BETi1 0.01%): 19.9 ng/mL and 18.2 ng/mL and 21.4 ng/mL | MMP-9 (% stimulated ctl) Mean ([2]; BETi1 0.1%): 10% | MMP-9 (% stimulated ctl) ([2]; BETi1 0.1%): 9% (2×) and 12% | Mean conc MMP-9 ([2]; BETi1 0.1%): 1.7 ng/mL | Conc MMP-9 ([2]; BETi1 0.1%): 1.5 ng/mL and 2.0 ng/mL and 1.6 ng/mL | MMP-9 (% stimulated ctl) Mean ([2]; BETi1 1%): 5% | MMP-9 (% stimulated ctl) ([2]; BETi1 1%): 5% (2×) and 6% | Mean conc MMP-9 ([2]; BETi1 1%): 0.9 ng/mL | Conc MMP-9 ([2]; BETi1 1%): 0.9 ng/mL and 1.1 ng/mL and 0.8 ng/mL | reduction in hydroxyproline levels ([3]; 3 mg/mL (group 5)): statistically significant compared to treatment with vehicle | hydroxyproline levels ([3]; 0.06, 0.6 and 3 mg/mL, vs bleomycin and vehicle): demonstrated a decrease in hydroxyproline levels | Hydroxyproline Level of Lung, Mean ([3]; Group 3 Bleo/BETi1 0.06 mg/mL): 0.2248 μg/mg tissue | Hydroxyproline Level of Lung, individual animals ([3]; Group 3 Bleo/BETi1 0.06 mg/mL): 0.1154 μg/mg tissue and 0.2842 μg/mg tissue and 0.3149 μg/mg tissue and 0.2968 μg/mg tissue and 0.3372 μg/mg tissue and 0.1322 μg/mg tissue and 0.1196 μg/mg tissue and 0.1977 μg/mg tissue | Mean Diff., Hydroxyproline Level of Lung, Group 2 Bleo/Veh vs. BETi1 group ([3]; Group 3 Bleo/BETi1 0.06 mg/mL): 0.08927 | Mean 2 (group mean), Hydroxyproline Level of Lung ([3]; Group 3 Bleo/BETi1 0.06 mg/mL): 0.2248 | Hydroxyproline Level of Lung, Mean ([3]; Group 4 Bleo/BETi1 0.6 mg/mL): 0.2535 μg/mg tissue | Hydroxyproline Level of Lung, individual animals ([3]; Group 4 Bleo/BETi1 0.6 mg/mL): 0.1377 μg/mg tissue and 0.3400 μg/mg tissue and 0.2954 μg/mg tissue and 0.1503 μg/mg tissue and 0.2745 μg/mg tissue and 0.3191 μg/mg tissue and 0.2242 μg/mg tissue and 0.2703 μg/mg tissue and 0.1029 μg/mg tissue and 0.2298 μg/mg tissue and 0.3121 μg/mg tissue and 0.2982 μg/mg tissue and 0.3414 μg/mg tissue | Mean Diff., Hydroxyproline Level of Lung, Group 2 Bleo/Veh vs. BETi1 group ([3]; Group 4 Bleo/BETi1 0.6 mg/mL): 0.0605 | Mean 2 (group mean), Hydroxyproline Level of Lung ([3]; Group 4 Bleo/BETi1 0.6 mg/mL): 0.2535 | Hydroxyproline Level of Lung, Mean ([3]; Group 5 Bleo/BETi1 3 mg/mL): 0.2003 μg/mg tissue | Hydroxyproline Level of Lung, individual animals ([3]; Group 5 Bleo/BETi1 3 mg/mL): 0.1935 μg/mg tissue and 0.0596 μg/mg tissue and 0.2200 μg/mg tissue and 0.2800 μg/mg tissue and 0.2731 μg/mg tissue and 0.1308 μg/mg tissue and 0.2466 μg/mg tissue and 0.1112 μg/mg tissue and 0.3107 μg/mg tissue and 0.2382 μg/mg tissue and 0.3024 μg/mg tissue and 0.1349 μg/mg tissue and 0.1029 μg/mg tissue | Mean Diff., Hydroxyproline Level of Lung, Group 2 Bleo/Veh vs. BETi1 group ([3]; Group 5 Bleo/BETi1 3 mg/mL): 0.1137 | Mean 2 (group mean), Hydroxyproline Level of Lung ([3]; Group 5 Bleo/BETi1 3 mg/mL): 0.2003
